The results in this text go back to patent US10736822B2, “Root canal treatment material and root canal treatment kit” (FUJIFILM Corporation, priority 2016, dated 2020).

The nature of this series: Evaluation of curability under moist environment (distilled water added, Vicat needle). Format: physicochemical. To be noted: conclusion in words from Table 1. How it is done:
The curability of each of the root canal treatment materials according to the examples and the comparative examples was evaluated through the following method. First, a cylindrical mold having an inner diameter of 5 mm and a height of 1 mm was filled with each of the root canal treatment materials which was then subjected to light irradiation with a light irradiator (“G-Light Prima II Plus” manufactured by GC) for 40 seconds to produce a test piece. […] A needle mark was visually checked and evaluated according to the following criteria.
The curability of each of the root canal treatment materials according to the examples and the comparative examples was evaluated in a moist environment through the following method. First, 15 μL of distilled water was added to 0.15 g of each of the root canal treatment materials which was then subjected to light irradiation with the light irradiator (“G-Light Prima II Plus” manufactured by GC) for 20 seconds to produce a test piece. The curability of each of the obtained test pieces was evaluated in the same manner as in <Evaluation of Curability> described above.

The structures appear in SMILES notation.

As to `C=CC(=O)NCCCOCC(COCCCNC(=O)C=C)(COCCCNC(=O)C=C)NC(=O)C=C` [compound (I)], the “curability in a moist environment” value was “particularly excellent curability in a moist environment”.
